What was measured:
[1] = test system: Human immunodeficiency virus 1; assay: Antiviral activity against HIV1 assessed as inhibition of capsid assembly; type: functional
[2] = test system: Human immunodeficiency virus 1; assay: Antiviral activity against HIV1 assessed as inhibition of capsid assembly at 1.4 uM; type: functional
[3] = test system: Human immunodeficiency virus 1; assay: Antiviral activity against HIV1 infected in human C8166 cells assessed as inhibition of viral replication after 3 days by luciferase assay; type: functional, organism-based; conditions: Human immunodeficiency virus 1, C8166, 72 h
[4] = test system: Human immunodeficiency virus 1; assay: Antiviral activity against HIV1 assessed as inhibition of capsid assembly at 3.8 uM; type: functional
[5] = test system: Human immunodeficiency virus 1; assay: Antiviral activity against HIV1 expressing wild type reverse transcriptase infected in human C8166 cells assessed as inhibition of viral replication after 3 days by luciferase assay; type: functional, organism-based; conditions: Human immunodeficiency virus 1, C8166, 72 h
[6] = Cytotoxicity against human C8166 cells; type: cell-based
[7] = test system: Human immunodeficiency virus 1; assay: Antiviral activity against HIV1 expressing reverse transcriptase K103N/Y181C double mutant infected in human C8166 cells assessed as inhibition of viral replication after 3 days by luciferase assay; type: functional, organism-based; conditions: Human immunodeficiency virus 1, C8166, 72 h
Rous sarcoma virus = assay: Antiviral activity against Rous sarcoma virus assessed as inhibition of capsid assembly; type: functional

Row | Compound | IC50 [1] [nM] | EC50 [3] [nM] | other results
1 | C=CCC1C(=O)N(C)c2ccc(C(F)(F)F)cc2N(c2ccccc2)C1=O (configuration not stated) | 16000 | – | –
2 | CN1C(=O)C(CCc2ccccc2)C(=O)N(c2ccccc2)c2cc(C(F)(F)F)ccc21 (configuration not stated) | – | – | inhibition at 1.4 µM [2]: 10%
3 | COCCN/C=C1\C(=O)N(C)c2c(Cl)cccc2N(c2ccccc2)C1=O | 2600 | – | –
4 | COCCN/C=C1\C(=O)N(C)c2ccc(C3CC3)cc2N(c2ccccc2)C1=O | 1400 | – | –
5 | CCn1cnc2c1C(=O)N(c1ccccc1)c1cc(Cl)ccc1N2C | 220 | 5200 | –
6 | CN1c2ccc(Cl)cc2N(c2ccccc2)C(=O)c2cn(Cc3ccc(C(=O)O)cc3)nc21 | 600 | 2000 | –
7 | COCCn1cc2c(n1)N(C)c1ccc(Cl)cc1N(c1ccccc1)C2=O | 1500 | 16000 | –
8 | O=C1Nc2ccc(Cl)cc2NC(=O)/C1=C/NCCO | 850 | – | –
9 | CN1c2ccc(Cl)cc2N(c2ccccc2)C(=O)c2c1ncn2C | 300 | 2900 | –
10 | CN1c2ccc(Cl)cc2N(c2ccccc2)C(=O)c2cn(C)nc21 | 700 | 7000 | –
11 | COCCN/C=C1/C(=O)Nc2cc(Cl)ccc2N(C)C1=O | 590 | – | –
12 | CN1c2ccc(Cl)cc2N(c2ccccc2)C(=O)c2c[nH]nc21 | 300 | 7800 | –
13 | CN1c2ccc(Cl)cc2N(c2ccccc2)C(=O)c2c1ncn2CCN | 370 | 4800 | –
14 | CN1C(=O)C(Cc2ccccc2)C(=O)N(c2ccccc2)c2cc(C(F)(F)F)ccc21 (configuration not stated) | – | – | inhibition at 3.8 µM [4]: 40%; EC50 [5]: > 20000 nM
15 | CN1c2ccc(Cl)cc2N(c2ccccc2)C(=O)c2c1ncn2Cc1ccc(C(=O)O)cc1 | 430 | 6100 | –
16 | CN(C)CCn1cc2c(n1)N(C)c1ccc(Cl)cc1N(c1ccccc1)C2=O | 6800 | 16000 | –
17 | COCCN/C=C1\C(=O)N(C)c2ccc(C(F)(F)F)cc2N(c2ccccc2)C1=O | 890 | – | –
18 | CCN1C(=O)/C(=C\NCCOC)C(=O)Nc2cc(Cl)ccc21 | 470 | – | –

Row | Compound | IC50 [1] [nM] | EC50 [3] [nM] | other results
19 | O=C1Nc2ccc(Cl)cc2NC(=O)/C1=C/NCc1ccncc1 | 670 | – | –
20 | CCn1cc2c(n1)N(C)c1ccc(Cl)cc1N(c1ccccc1)C2=O | 2200 | – | –
21 | CN1C(=O)C(c2ccccc2)C(=O)N(c2ccccc2)c2cc(C(F)(F)F)ccc21 (configuration not stated) | 1200 | – | CC50 [6]: > 20000 nM; EC50 [7]: 2700 nM; EC50 [5]: 3000 nM
22 | COCCN/C=C1\C(=O)N(C)c2ccccc2N(c2cccs2)C1=O | 500 | – | –
23 | COCCN/C=C1\C(=O)Nc2ccc(Cl)cc2NC1=O | 1400 | – | –
24 | COCCNCc1ccc(Cn2cnc3c2C(=O)N(c2ccccc2)c2cc(Cl)ccc2N3C)cc1 | 170 | 900 | –
25 | COCCN/C=C1\C(=O)N(C)c2ccc(C(F)(F)F)cc2N(c2ccc(Cl)cc2)C1=O | 4000 | – | –
26 | CN1c2ccc(Cl)cc2N(c2ccccc2)C(=O)c2cn(Cc3cccc(O)c3)nc21 | 600 | 4700 | –
27 | CN1c2ccc(Cl)cc2N(c2ccccc2)C(=O)c2[nH]cnc21 | 210 | 3800 | –
28 | COCCN/C=C1\C(=O)N(C)c2cc(Cl)ccc2N(c2ccccc2)C1=O | 1600 | – | –
29 | COCCn1cnc2c1C(=O)N(c1ccccc1)c1cc(Cl)ccc1N2C | 360 | 5800 | –
30 | O=C1CC(=O)Nc2cc(Cl)ccc2N1 | > 46000 | – | –
31 | CN1c2ccc(Cl)cc2N(c2ccccc2)C(=O)c2cn(Cc3ccc(CN4CCOCC4)cc3)nc21 | 1000 | 900 | –
32 | COCCN/C=C1/C(=O)Nc2cc(Cl)ccc2N(c2ccc(C)cc2)C1=O | > 9000 | – | –
33 | CN1c2ccc(Cl)cc2N(c2ccccc2)C(=O)c2c1ncn2Cc1cccc(O)c1 | 560 | 7300 | –
34 | CCCCN/C=C1\C(=O)Nc2ccc(Cl)cc2N(c2ccccc2)C1=O | 1400 | 17000 | IC50 (Rous sarcoma virus): > 100000 nM
35 | COCCN/C=C1\C(=O)N(C)c2cccc(Cl)c2N(c2ccccc2)C1=O | 930 | – | –
36 | COCCN/C=C1\C(=O)N(C)c2ccc(C(F)(F)F)cc2N(c2cccc(Cl)c2)C1=O | 7800 | – | –

Source: ChEMBL document CHEMBL1641406, “Discovery of a 1,5-dihydrobenzo[b][1,4]diazepine-2,4-dione series of inhibitors of HIV-1 capsid assembly” (Bioorg Med Chem Lett, 2011)
